According to a melting point compilation (Tetko et al.; mined from patent text by program, amines drawn as free bases though some values may be those of a salt):

Compound `O=C(Nc1cccc(-c2ccnc3c(C(=O)c4cccs4)cnn23)c1)OCC(Cl)(Cl)Cl` has a melting point of 197 to 200 °C.
`CCCSc1ccc(C(=O)OC)nc1` gave a melting point of 33 to 35 °C.
With `CC(C)(C)c1nc2cc(N3CCCCC3)c(N=C=S)cc2s1` the melting point was 112 to 114 °C.
In the case of `CCCn1c(=O)c2[nH]c(-c3cc(C)n(CC(=O)Nc4ccc(OC)c(OC)c4)n3)nc2n(CCC)c1=O`, the melting point is reported as 285 to 290 °C.
Work on `COc1ccc2c(CBr)c(Br)ccc2c1C(F)(F)F` yielded a melting point of 142 to 143 °C.
`N#CN1CCC2(CC1)CN(c1ccccc1[N+](=O)[O-])c1ccccc12` gave a melting point of 148 to 150 °C.
With `O=C(CCc1cnn2c(=O)[nH]cnc12)NCCCN1CCCC1=O` the melting point was 180 to 181 °C.
With `O=c1cc(-c2ccncn2)nc2n1CCCCC2Br` (racemic) the melting point was 117 to 119 °C.
Compound `Cc1cccc(C)c1N(CC(C)N)S(C)(=O)=O` (centres undefined) has a melting point of 106 to 109 °C.
Work on `Cc1nc2sccn2c(=O)c1Br` yielded a melting point of 127 to 129 °C.
`CC(=O)OC1CSC(Oc2c(C#N)ccnc2C)C(OC(C)=O)C1OC(C)=O` (centres undefined) showed a melting point of 109 to 113 °C.
With `Cc1ccc(S(=O)(=O)OCC2COc3ccc4[nH]ccc4c3O2)cc1` (centres undefined) the melting point was 145 °C.
Compound `O=C(O)CSC(CCCc1ccccc1)c1ccc(OCc2ccc3ccccc3n2)cc1` (centres undefined) has a melting point of 118 to 119 °C.
Compound `COc1cc2nc(N)nc(-c3cc(I)c(O)c(I)c3)c2cc1OC` has a melting point of 259 to 260 °C.
In the case of `NC(=O)N(O)CC=Cc1cccc(F)c1Sc1ccc(Cl)cc1`, the melting point is reported as 125 to 127 °C.
Work on `CCOC(=O)[C@H](Cc1ccc(-c2c(C(F)(F)F)cc(C)n(C)c2=O)cc1)NC(=O)c1c(Cl)cccc1Cl` yielded a melting point of 86 to 91 °C.
`Cc1ccc2c(c1)c(CCC(=O)O)c1n2C(=O)CCC1` showed a melting point of 152 to 153 °C.
With `COC(=O)c1ccc(-n2c(C)ccc2C#N)cc1` the melting point was 118 to 119 °C.
`Cc1nc(C(=O)NC2CC2)c2n1-c1ccc(Cl)cc1C(c1ccccc1F)=NC2` showed a melting point of 196 to 197 °C.
Compound `CCc1ccc(C#Cc2ccc(C=O)cc2)cc1` has a melting point of 117 °C.
Compound `C[C@@H](Cc1cc(F)cc2ccoc12)NC(=O)OC(C)(C)C` has a melting point of 120 to 121 °C.
Compound `Cc1nn(CC(F)(F)COCc2ccccc2)c(-c2ccc(F)cc2)c1-c1ccc2c(c1)NC(=O)CO2` has a melting point of 154 to 155 °C.
Compound `CSc1cc(CCC(=O)OC(C)(C)C)cc(-c2nc(=O)c3ccccc3s2)n1` has a melting point of 126 °C.
With `COc1ccc(C)cc1C(CCO)c1cc(C)ccc1OC` the melting point was 117 °C.
Compound `Cc1cc2nc3ccc(C(N)=O)cn3c(=O)c2s1` has a melting point of 375 to 377 °C.
For `Cc1cc(C=O)c(OCCCCOc2c(C=O)cc(C)cc2C=O)c(C=O)c1`, the melting point was 205 °C.
For `COc1ccc(-c2cccnc2)cc1`, the melting point was 62 to 63 °C.
In the case of `CC12CCC3C(CCC4=CC(=O)CCC43C=O)C1CCC2=O` (centres undefined), the melting point is reported as 126 to 129 °C.
For `N#CC1(c2ccc(NC(=O)c3ccc4c(c3)OCCO4)cc2)CCCC1`, the melting point was 164 to 167 °C.
With `CNC(SC)=C(C#N)C#N` the melting point was 119 to 120 °C.
`CCCn1nc2c(N)nc3ccccc3c2c1CCN(C(N)=O)c1ccc(F)cc1` gave a melting point of 201 to 202 °C.
In the case of `CC(=O)OCC1OC(c2nc(C(N)=O)cs2)C(OC(C)=O)C1OC(C)=O` (centres undefined), the melting point is reported as 103 °C.
`Cc1cn2ccnc(Cl)c2n1` showed a melting point of 128 to 130 °C.
Work on `CC(C)Cn1c(CNC(=O)OC(C)(C)C)c(-c2ccccc2)c2cc(CO)ccc2c1=O` yielded a melting point of 169 to 170 °C.
Compound `COc1ccc2cc([C@H](C)C(=O)OC/C=C\CO)ccc2c1` has a melting point of 69 to 71 °C.
Compound `O=C1OC(c2ccccc2)=NC1=NNc1ccccc1` has a melting point of 200 to 203 °C.
`C[C@@H](n1ncnn1)[C@](O)(Cn1ccnc1)c1ccc(F)cc1F` showed a melting point of 158 to 160 °C.
`CC(C)C[C@H](C(=O)O)N1CC[C@]2(CCCN2C(=O)C(C)C)C1=O` showed a melting point of 68 to 69 °C.
`CCN(CC)C(=O)n1cc(Cl)c(S(=O)(=O)c2c(C)cc(C)cc2C)n1` showed a melting point of 84 to 86 °C.
`COc1cc2c(cc1OC)C1c3ccccc3CCN1C2` (centres undefined) showed a melting point of 186 °C.
`Fc1ccc(-c2nc(-c3ccccc3)sc2-c2ccncc2)cc1` showed a melting point of 135 to 137 °C.
`O=C(O)/C=C/c1cncc(OCc2ccccc2)c1` gave a melting point of 140 °C.
Compound `O=C(NCCc1ccc(F)cc1)OCc1ccccc1` has a melting point of 51 to 52 °C.
Work on `CC(=O)n1ncc2c(O)ccc(C)c21` yielded a melting point of 135 to 136 °C.
Compound `CC(C)C(NS(=O)(=O)c1ccccc1)C(=O)NO` (centres undefined) has a melting point of 154 to 155 °C.
`COc1ccccc1-c1n[nH]c2c(NCCO)cc(C)nc12` showed a melting point of 193 to 194 °C.
For `O=C(CCl)NCCCn1cc(-c2ccccc2)c2ccccc2c1=O`, the melting point was 140 °C.
With `Cc1ccc(C23CN(C)CC2CC32SCCS2)cc1` (centres undefined) the melting point was 81 to 86 °C.
`O=C1CCC(N2C(=O)c3cccc(OCc4ccc5ccccc5n4)c3C2=O)C(=O)N1` (centres undefined) showed a melting point of 254 to 256 °C.
In the case of `O=c1[nH]c2c(c3nc(-c4ccccc4F)cn13)CNCC2`, the melting point is reported as > 310 °C.
`Nc1cc(Cl)cc(Cl)c1C(=O)NCc1ccc(F)cc1` showed a melting point of 89 to 94 °C.
With `CN=C(NCc1ccccc1)NN=Cc1c(Cl)cccc1Cl` the melting point was 84 to 86 °C.
`CC(=O)NNc1nc(-c2ccccc2)c2cc(Cl)ccc2n1` showed a melting point of 228 °C.
Work on `CC(C)(C)OC(=O)NCCNC(=O)c1ncccc1Oc1ccccc1Cl` yielded a melting point of 86 to 87 °C.
With `CC(Oc1ccc(Oc2cnc3ccccc3n2)cc1)C(=O)O` (centres undefined) the melting point was 137 to 141 °C.
With `Cc1nc2cc(NCC(=O)C3(C)CC3)ccc2s1` the melting point was 116 to 120 °C.
With `CC(C)CC1(C(C)C(=O)NO)CCN(CCc2ccccc2)C1=O` (centres undefined) the melting point was 107 to 108 °C.
Compound `CCC(C)C(=O)c1cn(C)cc(-c2cccc(C(F)(F)F)c2)c1=O` (centres undefined) has a melting point of 109 to 111 °C.
Compound `C=CCOC(=O)c1ncn2c1[C@@H]1CCCN1C(=O)c1c(Cl)cccc1-2` has a melting point of 122 to 123 °C.
`COc1c(C)cc(C(=O)c2cc(-c3ccc(Cl)cc3)c(N3CCOCC3)s2)nc1C` gave a melting point of 160 °C.
Compound `CC(=O)N1CCN(c2c(C)c(C)c3c(c2C)C(c2ccc(C)cc2)C(C)(C)O3)CC1` (centres undefined) has a melting point of 272 to 274 °C.
For `c1ccc(-n2c(-c3cccc(OCCN4CCCCC4)c3)nc3ccccc32)cc1`, the melting point was 68 °C.
With `O=C(Nc1cc(Cl)ccc1OCc1nnn[nH]1)c1cc(-c2ccc(Cl)cc2)oc1C(F)(F)F` the melting point was 227 to 236 °C.
Compound `N#CC1=CCC23OCOC2=C1c1c(C#N)cccc1OCO3` (centres undefined) has a melting point of 213 to 215 °C.
Work on `O=CC1CCc2[nH]c3ccc(F)cc3c2C1` (centres undefined) yielded a melting point of 96 to 98 °C.
In the case of `CC1(C)C=C(c2ccccn2)c2cc(C(F)(F)F)ccc2OC1`, the melting point is reported as 90 °C.
`O=C(c1c(Cl)cccc1Cl)P(=O)(C(=O)c1c(Cl)cccc1Cl)c1ccccc1` showed a melting point of 194 °C.
In the case of `CON=C(C)CCN1C(=O)c2ccccc2C1=O`, the melting point is reported as 55 to 64 °C.
For `CCc1cn(C2CC(O)C(CNCC(C)Oc3ccc(Cl)cc3Cl)O2)c(=O)[nH]c1=O` (mixture of isomers), the melting point was 51 to 61 °C.
Compound `Cc1nc(N2CCN(CC3CC3)C2=O)sc1C(=O)NCc1ccccc1` has a melting point of 142 to 143 °C.
`CC(C)c1cccc(N2CC(=O)NC(=O)N2)c1` showed a melting point of 130 to 132 °C.
For `NS(=O)(=O)c1cc(C(=O)O)cc(SCc2ccsc2)c1-c1ccccc1`, the melting point was 92 to 94 °C.
Work on `CCOC(=O)c1nnn(-c2ccc(C3=NNC(=O)NC3C)cc2)c1C(=O)OCC` (centres undefined) yielded a melting point of 156 to 158 °C.
With `CCOC(OCC)N1C(=O)C(c2ncnc3cc(OCCOC)c(OC)cc23)c2cc(F)ccc21` (centres undefined) the melting point was 245 to 255 °C.
